Entries after “also recorded” stand apart in the source; their conditions may differ.
Assays:
Sprague-Dawley rats = test: Mechanical and thermal pain behavior testing (von Frey monofilaments, radiant heat); type: in vivo, rat; conditions: for blockade of OR486-induced hyperalgesia / heightened pain sensitivity: antagonist i.p. prior to OR486; for paw withdrawal frequency to mechanical stimuli, antagonist in the absence of OR486 / paw withdrawal latency to radiant heat, antagonist in the absence of OR486 / paw withdrawal threshold to mechanical stimuli, antagonist in the absence of OR486: i.p. 10 min prior to vehicle, phentolamine 3, propranolol 3, SCH23390 0.2, spiperone 0.2, betaxolol 1.0, ICI118,551 0.5, SR59230A 5 mg/kg; for paw withdrawal frequency to mechanical stimuli, antagonist in the absence of OR486 / paw withdrawal latency to radiant heat, antagonist in the absence of OR486 / paw withdrawal threshold to mechanical stimuli, antagonist in the absence of OR486 / paw withdrawal frequency to mechanical stimuli (25 g monofilament) / paw withdrawal latency to thermal stimuli / paw withdrawal threshold to mechanical stimuli: relative to vehicle; for paw withdrawal frequency to mechanical stimuli (25 g monofilament) / paw withdrawal latency to thermal stimuli / paw withdrawal threshold to mechanical stimuli: OR486 or RO41-0960 30 mg/kg i.p., or 3% carrageenan i.pl.
Description: Rats were placed in plexiglass cages positioned over an elevated perforated stainless steel platform and habituated to the environment for 15-25 min prior to testing. Paw withdrawal threshold to punctate mechanical stimulation was assessed using the up-down method of Chaplan et al. (1994). A series of nine calibrated filaments (with bending forces of 0.40, 0.68, 1.1, 2.1, 3.4, 5.7, 8.4, 13.2, and 25.0 g; Sammons Preston Rolyan, Bolingbrook, Ill., U.S.A.) with approximately equal logarithmic spacing between stimuli (Mean±SEM: 0.232±0.04 units) were presented to the hind paw in successive order, whether ascending or descending. Filaments were positioned in contact with the hind paw for a duration of 3 s or until a withdrawal response occurred. Testing was initiated with the middle hair of the series (3.4 g). In the absence of a paw withdrawal response, an incrementally stronger filament was presented and in the event of a paw withdrawal, an incrementally weaker filament was presented. After the initial response threshold was crossed, this procedure was repeated four times in order to obtain a total of six responses in the immediate vicinity of the threshold. The presence of paw withdrawal (X) and absence of withdrawal (O) was noted together with the terminal filament used in the series of six responses. The 50% g threshold=(10^[Xf+kδ])/10,000, where Xf=value (in log units) of the final von Frey hair used; k=tabular value of pattern of positive (X) and negative (O) responses, and δ=mean difference (in log units) between stimuli.
Immediately following determination of the response threshold, paw withdrawal frequency (%) to punctate mechanical stimulation was assessed. A von Frey monofilament with a calibrated bending force of 25 g was presented to the hind paw 10 times for a duration of 1 s with an interstimulus interval of approximately 1 s. Mechanical hyperalgesia was defined as an increase in the percentage frequency ([# of paw withdrawals/10]×100) of paw withdrawal evoked by stimulation with von Frey monofilaments.
Thermal hyperalgesia was evaluated using the radiant heat method of Hargreaves et al. (1988) in the same animals evaluated for responsiveness to von Frey monofilaments. Radiant heat was presented through the floor of a finely perforated stainless steel platform to the midplantar region of the hind paw.
After establishing stable baseline responsiveness to mechanical and thermal stimuli, separate groups of rats received intraperitoneal injections of OR486 (30 mg/kg i.p.; N=8) or vehicle (N=8) one hour prior to behavioral testing. Responsiveness to von Frey filaments was reassessed at 30 min intervals for 2 hours. Paw withdrawal latencies to radiant heat were subsequently assessed at 2.5 hours into the testing procedure. Twenty-four hours later, baseline responsiveness to mechanical and thermal stimuli was reestablished. Animals received OR486 (30 mg/kg i.p.) or vehicle (consistent with the previous day). Thirty minutes following administration of drug or vehicle, separate groups of rats received intraplantar carrageenan (N=4 per group) or saline (N=4 per group). Responsiveness to von Frey filaments was reassessed at 30 min intervals for 2 hours following the induction of inflammation. Paw withdrawal latencies to radiant heat were subsequently assessed at 2.5 hours post carrageenan.
Rats were handled and habituated to the testing environment 2-3 days prior to establishing baseline responsiveness. On test days, rats were placed in plexiglass cages positioned over an elevated perforated stainless steel platform and habituated to the environment for 15-20 minutes prior to testing. Paw withdrawal threshold to punctate mechanical stimulation was assessed using the up-down method of Chaplan (Chaplan et al. (1994)). […]

TNFα, IL-1β, and IL-6 = test: In vivo plasma cytokine measurement (ELISA); design: species or system rat; conditions: rats; for plasma levels of IL-1β: OR486 30 mg/kg i.p. or 3% carrageenan i.pl.; for plasma levels of IL-1β / plasma levels of IL-6 / plasma levels of TNFα: relative to vehicle; for plasma levels of IL-6 / plasma levels of TNFα: OR486 or RO41-0960 30 mg/kg i.p., or 3% carrageenan i.pl.
Description: Blood was centrifuged and plasma separated from red blood cells. Plasma IL-6 was measured in duplicate using enzyme-linked immunosorbant assay (ELISA) kits from R&D systems (Minneapolis, Minn., U.S.A.). Plasma TNFα and IL-1β were measured in duplicate by the University of North Carolina Proteomics Ilmmunotechnologies Core using ELISA kits from Biosource (Camarillo, Calif., U.S.A.) and the National Institute for Biological Standards and Control (UK), respectively.

[1] = propranolol 3 mg/kg i.p. 10 minutes prior to OR486, relative to vehicle, phentolamine, SCH23390 or spiperone prior to OR486
[2] = propranolol 3 mg/kg i.p. prior to OR486, relative to vehicle prior to OR486
[3] = OR486 30 mg/kg i.p., relative to vehicle or carrageenan in the contralateral non-inflamed paw
[4] = i.p. 10 min prior to OR486, ICI118,551 0.5 or 5.0 mg/kg, SR59230A 5 or 50 mg/kg, betaxolol 0.1, 1.0, 10 mg/kg, relative to vehicle prior to OR486

Compound | blockade of OR486-induced hyperalgesia / heightened pain sensitivity (Sprague-Dawley rats) | paw withdrawal frequency to mechanical stimuli, antagonist in the absence of OR486 (Sprague-Dawley rats) | paw withdrawal latency to radiant heat, antagonist in the absence of OR486 (Sprague-Dawley rats) | paw withdrawal threshold to mechanical stimuli, antagonist in the absence of OR486 (Sprague-Dawley rats) | paw withdrawal frequency to mechanical stimuli (25 g monofilament) (Sprague-Dawley rats) | paw withdrawal latency to thermal stimuli (Sprague-Dawley rats) | paw withdrawal threshold to mechanical stimuli (Sprague-Dawley rats) | plasma levels of IL-6 (TNFα, IL-1β, and IL-6) | plasma levels of TNFα (TNFα, IL-1β, and IL-6) | also measured
Cc1ccc(N(CC2=NCCN2)c2cccc(O)c2)cc1 [phentolamine] | failed to block | failed to affect | failed to affect | failed to affect |  |  |  |  |  | 
carrageenan |  |  |  |  | increased paw withdrawal frequency | decreased paw withdrawal latency | decreased paw withdrawal threshold | elevated levels | elevated levels | plasma levels of IL-1β (TNFα, IL-1β, and IL-6): elevated levels
O=C(c1cc(O)c(O)c([N+](=O)[O-])c1)c1ccccc1F [RO41-0960] |  |  |  |  | increased paw withdrawal frequency | decreased paw withdrawal latency | decreased paw withdrawal threshold | a trend towards elevated levels | elevated plasma levels | mechanical and thermal pain sensitivity (Sprague-Dawley rats; RO41-0960 30 mg/kg i.p.): decreased mechanical and thermal pain sensitivity; plasma proinflammatory cytokine production (TNFα, IL-1β, and IL-6; RO41-0960 30 mg/kg i.p. vs vehicle, 30 mg/kg): increased cytokine production; also recorded: increases plasma proinflammatory cytokine levels; increase in plasma levels of IL-1β (TNFα, IL-1β, and IL-6; RO41-0960 30 mg/kg i.p. vs vehicle, no statistical analysis (sample loss)): 4.5 fold
CC(C)NCC(O)COc1cccc2ccccc12 (stereo not drawn) [propranolol] | completely blocks | failed to affect | failed to affect | failed to affect |  |  |  |  |  | paw withdrawal frequency to mechanical stimuli after OR486 (Sprague-Dawley rats; [1]): normalized; paw withdrawal latency to radiant heat after OR486 (Sprague-Dawley rats; [1]): normalized; paw withdrawal threshold to mechanical stimuli after OR486 (Sprague-Dawley rats; [1]): normalized; plasma levels of IL-1β after OR486 (TNFα, IL-1β, and IL-6; [2]): normalized plasma levels; also recorded: decreased plasma levels; plasma levels of IL-6 after OR486 (TNFα, IL-1β, and IL-6; [2]): normalized plasma levels; also recorded: decreased plasma levels; plasma levels of TNFα after OR486 (TNFα, IL-1β, and IL-6; [2]): normalized plasma levels; also recorded: decreased plasma levels
O=[N+]([O-])c1cc(O)c(O)c([N+](=O)[O-])c1 [OR486] |  |  |  |  | increased paw withdrawal frequency | decreased paw withdrawal thresholds; also recorded: decreased paw withdrawal latency | significantly decreased paw withdrawal threshold | elevated plasma levels | elevated plasma levels | degree of mechanical and thermal hyperalgesia (Sprague-Dawley rats; OR486 30 mg/kg i.p. compared with carrageenan-induced inflammation of the hindpaw): comparable to that produced by carrageenan-induced inflammation; paw withdrawal frequency to 25 g monofilament, non-inflamed paw (Sprague-Dawley rats; [3]): increased paw withdrawal frequency; paw withdrawal latency to thermal stimuli, non-inflamed paw (Sprague-Dawley rats; [3]): decreased paw withdrawal latency; paw withdrawal threshold to mechanical stimuli, non-inflamed paw (Sprague-Dawley rats; [3]): decreased paw withdrawal threshold; plasma levels of IL-1β (TNFα, IL-1β, and IL-6; 30 mg/kg): elevated plasma levels
CC(C)NCC(O)COc1ccc(CCOCC2CC2)cc1 (stereo not drawn) [betaxolol] |  | failed to affect | failed to affect | failed to affect |  |  |  |  |  | paw withdrawal latency to radiant heat after OR486, selective βAR antagonists (Sprague-Dawley rats; i.p. 10 min prior to OR486, ICI118,551 5.0 mg/kg, SR59230A 5 or 50 mg/kg, betaxolol 0.1, 1.0, 10 mg/kg, relative to vehicle prior to OR486): failed to alter; paw withdrawal frequency to mechanical stimuli after OR486, selective βAR antagonists (Sprague-Dawley rats; [4]): failed to alter; paw withdrawal threshold to mechanical stimuli after OR486, selective βAR antagonists (Sprague-Dawley rats; [4]): failed to alter
O=C(CCCN1CCC2(CC1)C(=O)NCN2c1ccccc1)c1ccc(F)cc1 [spiperone] | failed to block | failed to affect | failed to affect | failed to affect |  |  |  |  |  | 
